Here are results for two compounds from patent US20160102067A1, “OXIRAN AMINES” (V-BIOTEK HOLDING APS, priority 2012, published 2016).

One experiment deals with P. falciparum. The experiment can be described thus: [3H]-hypoxanthine incorporation, growth rate of P. falciparum (Example 7). It is filed as cell-based, Plasmodium falciparum. The settings on record: [3H]-hypoxanthine incorporation after 48 hrs, 3 fold dilution series, FIG. 15. How it is done:
15.3 mg 2-Methyl-3-nonyloxiran-2-amine obtained in example 6 was mixed with 100 μl DMSO (Dimethyl sulfoxid) to obtain a stock solution. A first solution was prepared by mixing 100 uL of the stock solution with 400 uL of parasite media. Subsequently this solution was diluted in 15 dilution series, each dilution serie being diluted 3 fold. The same protecol as used in example 6 was applied for this experiment.
Specifically, the incorporation of [3H]-hypoxanthine was used as a measure for the life conditions of P. falciparum. Parasites were syncronised to ring stages by […] treatment and then incubated at 0.3% parasitemia at 5% haematocrit in 100 uL of growth medium containing [3H]-hypoxanthine over one cycle of replication, i.e. 48 hrs. Each experiment was performed in triplets.

For experiment [1], the system named is MRSA (meticillin-resistant staphylococcus aureusis). In words: MIC determination for MRSA. It is filed as cell-based. Particulars: Staphylococcus aureus, dilution series, read-out: MIC (Minimum Inhibitory Concentration). The protocol:
(§1) 15.3 mg 2-Methyl-3-nonyloxiran-2-amine obtained in example 6 was mixed with 100 μl DMSO (Dimethyl sulfoxid) to obtain a stock solution. The stock solution was used for determining the MIC (Minimum Inhibitory Concentration) for MRSA (meticillin-resistant staphylococcus aureusis) and MSSA (meticillin-sensitive staphylococcus aureusis).

Experiment [2] has as its system MSSA (meticillin-sensitive staphylococcus aureusis). The experiment can be described thus: MIC determination for MSSA. Type of experiment: cell-based. Particulars: Staphylococcus aureus, dilution series, read-out: MIC (Minimum Inhibitory Concentration). How it is done:
as §1

Experiment [3] has as its system erythrocytic stages of P. falciparum. The experiment can be described thus: [3H]-hypoxanthine incorporation assay with extract, P. falciparum strain K1. The settings on record: extract at a dilution of 160 times. Type of experiment: cell-based, Plasmodium falciparum. How it is done: In vitro activity of extract dilutions were tested against erythrocytic stages of P. falciparum by a modified [3H]-hypoxanthine incorporation assay (Scala, F., Fattorusso, E., Menna, M., Taglialatela-Scafati, O., Tiemey, M., Kaiser, M., Tasdemir, D., 2010. Bromopyrrole alkaloids as lead compounds against protozoan parasites. Marine Drugs 8, 2162-2174.) using the […] strain K1. The standard drug used as a positive control was amodiaquine.
Briefly, parasite cultures incubated in RPMI 1640 medium with 5% Albumax (without hypoxanthine) were exposed to serial extract dilutions in microtiter plates. After 48 h of incubation at 37 ° C. in a reduced oxygen atmosphere, 0.5 μCi 3H-hypoxanthine was added to each well. Cultures were incubated for a further 24 h before they were harvested onto glass-fiber filters and washed with distilled water. The radioactivity was counted using a Betaplate™ liquid scintillation counter (Wallac, Zurich, Switzerland). The results were recorded as counts per minute (CPM) per well at each drug concentration and expressed as percentage of the untreated controls. IC50 values were calculated from graphically plotted dose-response curves. Each IC50 value obtained is the mean of at least two separate experiments performed in duplicate (the variation is maximum 20%).

Structures are written as SMILES. Converted amounts (≈) assume the structure as drawn.

For `CCCCCCCCCC1OC1(C)N` (stereo not shown) [2-Methyl-3-nonyloxiran-2-amine], the “growth rate of P. Falciparum” value in the experiment on P. falciparum is recorded as “concentration dependent inhibition”. Besides, the MIC in experiment [1] was found to be 38.3 mg/mL (≈ 192 mM); in experiment [2], 9.6 mg/mL (≈ 48.2 mM).
Consider `CCN(CC)Cc1cc(Nc2ccnc3cc(Cl)ccc23)ccc1O` [amodiaquine], for which, in experiment [3], the “[3H]-hypoxanthine incorporation value” is recorded as 47.5 CPM.
